The structures appear in SMILES notation. Where only a bound is given, the exact number is not on record here.

This test concerns the target T1, human SLC6A19 and TMEM27 (Homo sapiens, UniProt Q695T7).
T1 construct: expressed in transfected cells
T1 sequence (Q695T7 1-634): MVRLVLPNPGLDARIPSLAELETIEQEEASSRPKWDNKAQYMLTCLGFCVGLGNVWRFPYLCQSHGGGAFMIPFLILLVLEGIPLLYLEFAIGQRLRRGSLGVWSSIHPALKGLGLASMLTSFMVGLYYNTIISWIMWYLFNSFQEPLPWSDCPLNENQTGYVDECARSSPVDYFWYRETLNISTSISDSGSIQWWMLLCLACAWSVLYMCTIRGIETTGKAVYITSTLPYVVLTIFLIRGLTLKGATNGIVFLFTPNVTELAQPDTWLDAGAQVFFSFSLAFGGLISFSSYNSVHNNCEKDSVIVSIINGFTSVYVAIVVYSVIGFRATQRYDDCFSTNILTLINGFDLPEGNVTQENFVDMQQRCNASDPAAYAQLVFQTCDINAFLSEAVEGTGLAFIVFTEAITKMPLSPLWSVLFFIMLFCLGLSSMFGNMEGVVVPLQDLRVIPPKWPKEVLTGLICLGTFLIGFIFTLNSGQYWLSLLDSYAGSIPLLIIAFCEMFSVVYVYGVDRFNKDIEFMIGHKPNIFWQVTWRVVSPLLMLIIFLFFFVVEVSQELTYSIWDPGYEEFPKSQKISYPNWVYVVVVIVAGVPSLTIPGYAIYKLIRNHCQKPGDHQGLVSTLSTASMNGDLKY
T1 sequence (Q9HBJ8 15-222 partner): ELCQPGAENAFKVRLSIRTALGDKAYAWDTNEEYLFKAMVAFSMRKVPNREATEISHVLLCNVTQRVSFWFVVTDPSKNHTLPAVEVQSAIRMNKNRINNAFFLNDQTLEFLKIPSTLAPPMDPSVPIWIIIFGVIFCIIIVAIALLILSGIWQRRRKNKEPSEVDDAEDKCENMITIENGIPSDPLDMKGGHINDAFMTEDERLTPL
The test is described as follows: Radiolabelled (3H) leucine uptake in CHO cells with doxycycline-inducible expression of human SLC6A19 and TMEM27 (Example B-1). It counts as cell-based. Conditions: CHO cells with doxycycline-inducible expression of human SLC6A19 and TMEM27, read-out: SLC6A19_Radioligand Uptake Assay IC50. The essentials:
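CHO cells were induced with doxycycline for 18 h at 37 °C, washed in HBSS, then exposed to compounds for 1 h: 8-point, 3-fold dilutions in duplicate, 0.5% DMSO final. Uptake measured by scintillation counting after 2 h shaking. Activity normalized with positive control as 0% and DMSO as 100%.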
As for `Cc1cc(COc2cc(F)c3cc(CNC(=O)C4(C)CC4)[nH]c3c2)on1` [Compound 339, N-((4-fluoro-6-((3-methylisoxazol-5-yl)methoxy)-1H-indol-2-yl)methyl)-1-methylcyclopropane-1-carboxamide], the half-inhibitory concentration (IC50) (in general, the point on the concentration scale where inhibition reaches its midpoint) was 328 nM.

On to `CC1(C(=O)NCc2cc3ccc(OCc4ccc5ccoc5c4)cc3[nH]2)CC1` [Compound 192, N-((6-(benzofuran-6-ylmethoxy)-1H-indol-2-yl)methyl)-1-methylcyclopropane-1-carboxamide], for which the IC50 worked out at 2510 nM.

`Cc1cc(COc2cc(F)c3cc(CNC(=O)C4(C)CC4)[nH]c3c2)no1` [Compound 340, N-((4-fluoro-6-((5-methylisoxazol-3-yl)methoxy)-1H-indol-2-yl)methyl)-1-methylcyclopropane-1-carboxamide]: the IC50 worked out at 277 nM.

Regarding `CN(C)CC(=O)NCc1cc2cc(Cl)c(OCc3cscn3)cc2[nH]1` [Compound 580, N-((5-chloro-6-(thiazol-4-ylmethoxy)-1H-indol-2-yl)methyl)-2-(dimethylamino)acetamide], the IC50 came to 620 nM.

With `Cc1cc(COc2cc3[nH]c(CNC(=O)N4CCC(C(F)F)C4)cc3cc2Cl)on1` (stereo not drawn) [Compound 377, N-((5-chloro-6-((3-methylisoxazol-5-yl)methoxy)-1H-indol-2-yl)methyl)-3-(difluoromethyl)pyrrolidine-1-carboxamide], the IC50 is 847 nM.

As for `O=C(NCc1[nH]c2cc(OCc3cscn3)c(Cl)cc2c1Cl)N1CCC1` [Compound 474, N-((3,5-dichloro-6-(thiazol-4-ylmethoxy)-1H-indol-2-yl)methyl)azetidine-1-carboxamide], the IC50 came to 553 nM.

Regarding `O=C(NCc1cc2cc(F)c(OCc3cscn3)cc2[nH]1)C1(C(F)F)CC1` [Compound 569, 1-(difluoromethyl)-N-((5-fluoro-6-(thiazol-4-ylmethoxy)-1H-indol-2-yl)methyl)cyclopropane-1-carboxamide], the half-inhibitory concentration (IC50) turned out to be 121 nM.

For the compound `CC(NC(=O)C1(C)CC1)c1cc2cc(Cl)c(OCc3ccon3)cc2[nH]1` (racemic) [Compound 395, (S)-N-(1-(5-chloro-6-(isoxazol-3-ylmethoxy)-1H-indol-2-yl)ethyl)-1-methylcyclopropane-1-carboxamide and (R)-N-(1-(5-chloro-6-(isoxazol-3-ylmethoxy)-1H-indol-2-yl)ethyl)-1-methylcyclopropane-1-carboxamide], the IC50 is 2140 nM.

Take `Cc1cc(COc2cc3[nH]c(CNC(=O)[C@H](O)CF)cc3cc2Cl)on1` [Compound 246, (S)-N-((5-chloro-6-((3-methylisoxazol-5-yl)methoxy)-1H-indol-2-yl)methyl)-3-fluoro-2-hydroxypropanamide]: the IC50 stood at 411 nM.

In the case of `Cc1cc(COc2cc3[nH]c(CNC(=O)[C@@H]4CCN4)cc3cc2Cl)on1` [Compound 448, (S)-N-((5-chloro-6-((3-methylisoxazol-5-yl)methoxy)-1H-indol-2-yl)methyl)azetidine-2-carboxamide], the IC50 stood at 2750 nM.

For the compound `Cc1cc(COc2cc3[nH]c(CNC(=O)C[C@H]4CCOC4)cc3cc2Cl)on1` [Compound 290, (R)-N-((5-chloro-6-((3-methylisoxazol-5-yl)methoxy)-1H-indol-2-yl)methyl)-2-(tetrahydrofuran-3-yl)acetamide], the IC50 is 5290 nM.

In the case of `CC1(C(=O)NCc2cc3cc(Cl)c(OCc4sncc4Cl)cc3[nH]2)CC1` [Compound 325, N-((5-chloro-6-((4-chloroisothiazol-5-yl)methoxy)-1H-indol-2-yl)methyl)-1-methylcyclopropane-1-carboxamide], the half-inhibitory concentration (IC50) was 3730 nM.

Take `CC1(C(=O)NCc2cc3cc(Cl)c(OCc4cscn4)cc3[nH]2)COC1` [Compound 277, N-((5-chloro-6-(thiazol-4-ylmethoxy)-1H-indol-2-yl)methyl)-3-methyloxetane-3-carboxamide]: the IC50 is 279 nM.

Regarding `Cc1cc(COc2cc3[nH]c(CNC(=O)[C@H]4CCN4C)cc3cc2Cl)on1` [Compound 575, (R)-N-((5-chloro-6-((3-methylisoxazol-5-yl)methoxy)-1H-indol-2-yl)methyl)-1-methylazetidine-2-carboxamide], the IC50 stood at 3050 nM.

Turning to `CC1(C(=O)NCc2cc3cc(Cl)c(CNc4ccccn4)cc3[nH]2)CC1` [Compound 609, N-((5-chloro-6-((pyridin-2-ylamino)methyl)-1H-indol-2-yl)methyl)-1-methylcyclopropane-1-carboxamide], the IC50 came out at 339 nM.

In the case of `O=C(NCc1cc2cc(C(F)(F)F)c(OCc3ccon3)cc2[nH]1)N1CCC1` [Compound 477, N-((6-(isoxazol-3-ylmethoxy)-5-(trifluoromethyl)-1H-indol-2-yl)methyl)azetidine-1-carboxamide], the IC50 worked out at 383 nM.

Regarding `O=C(NCCO)NCc1cc2cc(Cl)c(OCc3cscn3)cc2[nH]1` [Compound 619, 1-((5-chloro-6-(thiazol-4-ylmethoxy)-1H-indol-2-yl)methyl)-3-(2-hydroxyethyl)urea], the IC50 was above 8440 nM.

As for `CC(O)C(=O)NCc1cc2cc(Cl)c(OCc3cscn3)cc2[nH]1` (stereo not drawn) [Compound 243, N-((5-chloro-6-(thiazol-4-ylmethoxy)-1H-indol-2-yl)methyl)-2-hydroxypropanamide], the concentration for half-maximal inhibition (IC50) is 336 nM.

For the compound `CNCC(=O)NCc1cc2cc(Cl)c(OCc3cscn3)cc2[nH]1` [Compound 614, N-((5-chloro-6-(thiazol-4-ylmethoxy)-1H-indol-2-yl)methyl)-2-(methylamino)acetamide], the IC50 worked out at 3260 nM.

For the compound `C[C@H]1CCN(C(=O)NCc2cc3cc(F)c(OCc4cscn4)cc3[nH]2)C1` [Compound 388, (S)-N-((5-fluoro-6-(thiazol-4-ylmethoxy)-1H-indol-2-yl)methyl)-3-methylpyrrolidine-1-carboxamide], the IC50 was found to be 336 nM.

Take `Cc1cc(COc2cc3[nH]c(CNC(=O)C4(C)CC4)cc3cc2Cl)sn1` [Compound 398, N-((5-chloro-6-((3-methylisothiazol-5-yl)methoxy)-1H-indol-2-yl)methyl)-1-methylcyclopropane-1-carboxamide]: the IC50 amounted to 599 nM.

For the compound `Cc1ccnc(COc2cc3[nH]c(CNC(=O)C4(C)CC4)cc3cc2Cl)c1` [Compound 22, N-((5-chloro-6-((4-methylpyridin-2-yl)methoxy)-1H-indol-2-yl)methyl)-1-methylcyclopropane-1-carboxamide], the IC50 came out at 2240 nM.

On to `CCC(=O)NCc1cc2c(F)cc(OCc3cscn3)cc2[nH]1` [Compound 515, N-((4-fluoro-6-(thiazol-4-ylmethoxy)-1H-indol-2-yl)methyl)propionamide], for which the IC50 is 116 nM.

Take `CC(C)C(=O)NCc1cc2cc(F)c(OCc3ccon3)cc2[nH]1` [Compound 138, N-((5-fluoro-6-(isoxazol-3-ylmethoxy)-1H-indol-2-yl)methyl)isobutyramide]: the IC50 is 353 nM.

With `Cc1cc(COc2cc3[nH]c(CNC(=O)N4CCC(F)C4)cc3cc2Cl)on1` (racemic) [Compound 373, (R)-N-((5-chloro-6-((3-methylisoxazol-5-yl)methoxy)-1H-indol-2-yl)methyl)-3-fluoropyrrolidine-1-carboxamide and (S)-N-((5-chloro-6-((3-methylisoxazol-5-yl)methoxy)-1H-indol-2-yl)methyl)-3-fluoropyrrolidine-1-carboxamide], the half-inhibitory concentration (IC50) is 472 nM.

Take `Cc1cc(COc2cc3[nH]c(CNC(=O)[C@@]4(C)CCCO4)cc3cc2Cl)on1` [Compound 307, (R)-N-((5-chloro-6-((3-methylisoxazol-5-yl)methoxy)-1H-indol-2-yl)methyl)-2-methyltetrahydrofuran-2-carboxamide]: the IC50 was 579 nM.

For the compound `Cc1cc(COc2cc3[nH]c(CNC(=O)[C@@H](C)O)cc3cc2F)on1` [Compound 283, (R)-N-((5-fluoro-6-((3-methylisoxazol-5-yl)methoxy)-1H-indol-2-yl)methyl)-2-hydroxypropanamide], the IC50 is above 8950 nM.

`Cc1cc(COc2cc3[nH]c(CNC(=O)C(O)C4CC4)cc3cc2Cl)on1` (stereo not drawn) [Compound 238, N-((5-chloro-6-((3-methylisoxazol-5-yl)methoxy)-1H-indol-2-yl)methyl)-2-cyclopropyl-2-hydroxyacetamide]: the IC50 was 1450 nM.

Regarding `O=C(NCc1cc2cc(F)c(OCc3cscn3)cc2[nH]1)C(F)F` [Compound 567, 2,2-difluoro-N-((5-fluoro-6-(thiazol-4-ylmethoxy)-1H-indol-2-yl)methyl)acetamide], the IC50 was 182 nM.

`Cc1cc(COc2cc3[nH]c(CNC(=O)[C@H](C)O)cc3cc2Cl)on1` [Compound 284, (S)-N-((5-chloro-6-((3-methylisoxazol-5-yl)methoxy)-1H-indol-2-yl)methyl)-2-hydroxypropanamide]: the half-inhibitory concentration (IC50) was 172 nM.

(Values after US20240199546A1, “INHIBITORS OF SOLUTE CARRIER FAMILY 6A MEMBER 19 (SLC6A19) AND METHODS OF USE THEREOF” (Maze Therapeutics, Inc., priority 2022, published 2024).)
